Values joined by “and” are separate entries in the source; they are usually repeats but may differ in a detail not shown here. Equal entries are not always repeated.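 How tested: cells in 96-well plates exposed to compound for 48 hours at five concentrations. GI50 marks 50% less growth. Definition used: TGI = concentration required for complete inhibition of growth.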
Experiments:
Test in all cases: NCI anticancer screen, dose series, 48 h
[1] = system: NCI/ADR-RES ovarian
[2] = system: IGROV1 ovarian
[3] = system: 786-0 renal
[4] = system: OVCAR-5 ovarian
[5] = system: SF-539 CNS
[6] = system: EKVX NSCLC
[7] = system: T-47D breast
[8] = system: SK-OV-3 ovarian
[9] = system: SNB-19 CNS
[10] = system: CCRF-CEM leukemia

SMILES	GI50 [1]	TGI [1]	GI50 [2]	TGI [2]	GI50 [3]	TGI [3]	GI50 [4]	TGI [4]	GI50 [5]	TGI [5]	GI50 [6]	TGI [6]	GI50 [7]	TGI [7]	GI50 [8]	TGI [8]	GI50 [9]	TGI [9]	GI50 [10]	TGI [10]
CC(=O)OC[C@]12CC[C@@H]([C@@H](C)C(N)=O)[C@@H]1[C@H]1CC[C@@H]3[C@@]4(C)CC[C@H](OC(C)=O)C(C)(C)[C@@H]4CC[C@@]3(C)[C@]1(C)CC2	7.74 µM	27.2 µM	13.2 µM	30 µM	10.9 µM	26.3 µM	14.4 µM	32.2 µM	5.52 µM	17.7 µM	9.27 µM	22.5 µM	2.91 µM	12.9 µM	13.4 µM	64 µM	11.9 µM	29.1 µM	5.19 µM	30 µM
O=C1c2ccccc2-c2c1c1ccccc1c(=O)n2CCCN1CCN(CCCn2c3c(c4ccccc4c2=O)C(=O)c2ccccc2-3)CC1	> 100 µM	> 100 µM	> 35 µM	> 100 µM	2.22 µM	> 32 µM	> 100 µM	> 100 µM	> 70.6 µM	> 100 µM	> 100 µM	> 100 µM	> 100 µM	> 100 µM	> 100 µM	> 100 µM	99.4 µM	> 100 µM	13.8 µM	> 100 µM
CC1(C)CC2C=C(C=O)C3(C=O)CC3(C)C2C1 (configuration not stated)		5.21 µM		4.68 µM		3.13 µM		4.14 µM		3.51 µM		7.5 µM		9.02 µM		16.2 µM		25.6 µM		1.15 µM
O=C(c1cccs1)c1c(C(F)(F)F)n([O-])c2ccc(F)cc2[n+]1=O	2.36 µM	6.33 µM	0.279 µM	1.49 µM	1.32 µM	2.74 µM	1.76 µM	3.21 µM	1.67 µM	3.47 µM	1.69 µM	3.7 µM	0.69 µM	3.23 µM	1.85 µM	3.59 µM	1.38 µM	2.86 µM	0.662 µM	1.98 µM
CN1c2ccccc2S(=O)(=O)n2c(COc3ccc(Cl)cc3)nnc21		> 100 µM		> 100 µM		> 100 µM		> 100 µM		> 100 µM		> 100 µM		> 100 µM		> 100 µM		> 100 µM		> 100 µM
C=C1C(=O)O[C@@H]2C[C@@H]1CC[C@@]1(C)O[C@@H]1CC[C@@]1(C)O[C@@H]1CC[C@@]2(C)O	32.4 µM	78.3 µM	21.2 µM	> 100 µM	19.2 µM	42.2 µM	20.5 µM	56.5 µM	26.7 µM	75.9 µM	32.3 µM	> 100 µM	2.09 µM	17 µM	30.6 µM	> 100 µM	17.6 µM	66 µM	28.1 µM	> 100 µM
COc1cc2c3c(n(C)c(=O)c2cc1OC)-c1cc2c(cc1/C3=C\CCCBr)OCO2		> 100 µM	28.5 µM	> 100 µM	8.5 µM	> 40.2 µM	19.3 µM	> 70.6 µM	10.3 µM	> 41.6 µM	15.6 µM	> 62.5 µM	> 91.3 µM	> 100 µM	18.1 µM	44.8 µM	23.4 µM	> 65.8 µM	14.3 µM	50.3 µM
C#CCNC(=O)CC[C@]1(C)[C@H]2CC[C@@H]3[C@@H]([C@@](C)(O)CCC=C(C)C)CC[C@@]3(C)[C@]2(C)CC[C@H]1C(=C)C	40.5 µM	> 100 µM	10.2 µM	25.4 µM	12.2 µM	30 µM	51.9 µM	> 100 µM	17.2 µM	31.1 µM	47.9 µM	> 100 µM	35 µM	> 100 µM	> 100 µM	> 100 µM	56.1 µM	> 100 µM	6.77 µM	28.7 µM
C=CCN(/C=C1\C(=O)O[C@H](COC)[C@@]2(C)C1=C(O)C(=O)C1=C2[C@H](OC(C)=O)C[C@]2(C)C(=O)CC[C@@H]12)CC=C	5.76 µM and 2.34 µM	20 µM and > 100 µM	0.145 µM and 0.206 µM			20 µM and 25.7 µM	2.34 µM and 0.737 µM	20 µM and 76.4 µM	3.6 µM and 0.524 µM	20 µM and 6.41 µM	0.474 µM and 0.0779 µM	10.4 µM and 1.67 µM		20 µM and > 100 µM	3.38 µM and 0.596 µM	20 µM and 19.8 µM	5.92 µM and 1.1 µM	20 µM and 92.9 µM	11.1 µM and 1.41 µM	20 µM and > 100 µM
COc1ccc(C2=C(c3cc(OC)c(OC)c(OC)c3)C(=O)CC2)cc1	0.0704 µM	> 100 µM	0.58 µM	> 100 µM	0.425 µM	> 100 µM	0.662 µM	> 100 µM	0.189 µM	> 48.3 µM	0.699 µM	> 100 µM	24.6 µM	> 100 µM	0.179 µM		0.41 µM	> 100 µM	0.21 µM	
CCOC(=O)c1c(C)n2c(=O)cc(C)c3c(OC(C)=O)c(OC(C)=O)cc1c32	2.69 µM	> 27 µM	4.78 µM	41.9 µM	3.75 µM		11.9 µM	42.2 µM	4.24 µM	21.1 µM	4.96 µM	17.8 µM	4.08 µM	> 40.9 µM	11.8 µM	87.5 µM	5.71 µM	> 65 µM	1.44 µM	6.45 µM
Clc1ccc(-c2nn3ncccc3c2-c2ccnc(Nc3ccccc3)n2)cc1	8.01 µM	> 25 µM	2.29 µM	> 22 µM	8.2 µM	> 25 µM	11.9 µM	> 25 µM	> 14.2 µM	> 25 µM	2.94 µM	> 25 µM	10.2 µM	> 25 µM	6.55 µM	> 25 µM	> 14.4 µM	> 25 µM	10.6 µM	> 25 µM
CCCCN(CCCC)CCCN=c1nc2c(c(N)n1-c1ccccc1)c(=S)n(-c1ccccc1)c(=S)n2-c1ccccc1	2.09 µM	4.12 µM	1.9 µM	3.79 µM	0.501 µM	1.08 µM	1.67 µM	3.24 µM	1.36 µM	2.84 µM	0.84 µM	2.69 µM	1.73 µM	3.79 µM	1.55 µM	3.04 µM	1.29 µM	2.74 µM	0.215 µM	
Cc1nc(/N=C(\N)NC(=O)Nc2ccccc2Cl)sc1C	0.271 µM	3.28 µM	0.528 µM	> 100 µM	0.639 µM	3.25 µM	1.32 µM	> 100 µM	0.413 µM	8.34 µM	0.626 µM	> 100 µM	0.519 µM	> 100 µM	0.735 µM	5.54 µM	0.462 µM	12.4 µM	0.352 µM	> 53.2 µM
N#Cc1c(NC(=O)CN2CCOCC2)sc2c1CCCC2	> 25 µM	> 25 µM	> 25 µM	> 25 µM	> 25 µM	> 25 µM	> 25 µM	> 25 µM	> 25 µM	> 25 µM	> 25 µM	> 25 µM	> 25 µM	> 25 µM	> 25 µM	> 25 µM	> 25 µM	> 25 µM	> 25 µM	> 25 µM
COc1ccc(Cc2cnc(NC(=O)c3sc4ccccc4c3Cl)s2)cc1	0.342 µM	> 100 µM	0.608 µM	> 100 µM	0.652 µM	> 100 µM	0.587 µM	> 100 µM	0.236 µM	0.674 µM	0.48 µM	> 100 µM	0.768 µM	> 100 µM	0.619 µM	> 100 µM	0.461 µM	> 100 µM	0.402 µM	> 100 µM
